{
  "source": "patent US7323444B2",
  "about": "“Use of kahalalide compounds for the manufacture of a medicament for the treatment of psoriasis” (Pharma Mar, S.A.U., priority 2003, dated 2008)",
  "key": {"[1]": {"conditions": "cited from earlier work"}, "[2]": {"test_system": "solid tumour cell lines", "conditions": "preclinical studies, in vitro; cited from earlier work"}, "[3]": {"test_system": "psoriasis", "description": "This phase I Clinical and Pharmacokinetic study was designed to determine the safety of Kahalalide F administered as a weekly infusion over 1 hour in patients with solid tumours. This trial was addressed to any solid tumours and was designed as a classical escalation. The patient was a patient with a psoriasis history since more than 40 years."}},
  "data": [
    {"smiles": "C/C=C1\\NC(=O)[C@H](Cc2ccccc2)NC(=O)[C@@H](C(C)C)NC(=O)[C@@H](C(C)CC)NC(=O)[C@H](NC(=O)[C@H](NC(=O)[C@H](CCCN)NC(=O)[C@H]2CCCN2C(=O)[C@H](NC(=O)[C@@H](NC(=O)C(NC(=O)[C@H](NC(=O)CCCC(C)C)C(C)C)[C@@H](C)O)C(C)C)C(C)C)C(C)CC)C(C)OC(=O)[C@H](C(C)C)NC1=O", "note": "(stereo partly shown) [kahalalide F]", "values": [
      {"measurement": "maximum tolerated dose (MTD)", "setting": "[1]; female mice, single bolus iv injection", "value": 0.28, "unit": "mg/kg"},
      {"measurement": "acute toxicity on repeated administration", "setting": "[1]; mice, 280 μg/kg once daily times five", "value": "without any apparent evidence of acute toxicity"},
      {"measurement": "toxicity of single doses just above the MTDiv", "setting": "[1]; mice, single iv doses just above MTD, signs of neurotoxicity followed by death", "value": "extremely toxic"},
      {"measurement": "activity against solid tumour cell lines", "setting": "[2]", "value": "significant activity"},
      {"measurement": "psoriasic symptoms after the first infusion", "setting": "[3]; one patient, severe psoriasis, 650 μg/m^2 weekly iv infusion over 1 hour, after first infusion", "value": "quick improvement of the psoriasic symptoms"},
      {"measurement": "remission of the cutaneous plaques with the following infusions", "setting": "[3]; same patient, 650 μg/m^2 weekly, total of 7 infusions", "value": "nearly complete remission of the cutaneous plaques"},
      {"measurement": "psoriasis status after end of treatment", "setting": "[3]; same patient, two months after the last dose", "value": "still in a nearly complete remission situation"}
    ]}
  ]
}
